Experimental data reported in patent publication US9951051B2, “Process for producing alkynylketone derivative” (Shionogi & Co., Ltd., priority 2014, dated 2018).
Structures can show the parent of a compound that is named as a salt.

Experiment: Solubility test of methanesulfonate of Compound represented by Formula (II″)
Format: physicochemical
Details: HPLC method A; for concentration in supernatant solution (solubility): 20 to 25 °C, slurry stirred over two hours; for concentration of crystalline form dissolved into the solution: Conditions in Example 2 (DMSO/NMM/THF/MeCN), 0 °C
Protocol: Crystalline form of methanesulfonate of Compound represented by Formula (II″) and crystalline form of free form of Compound represented by Formula (II″) were suspended in tetrahydrofuran or acetonitrile, respectively. The slurries were stirred at 20° C. to 25° C. for over two hours, and then the concentration in each supernatant solution was measured (HPLC method A). The HPLC results of the concentration in each supernatant solution are indicated as Table 12.
Moreover, the concentration of each crystalline form being dissolved into the solution at 0° C. in Step 1 (Step to obtain the crystalline form of methanesulfonate) and Step 2 (Step to obtain the crystalline form of free form) in Example 2 was measured by HPLC method A and compared (Table 12).

concentration in supernatant solution (solubility) (Acetonitrile) [%] | concentration of crystalline form dissolved into the solution [%] | concentration of crystalline form dissolved into the solution (listed as methanesulfonate of Compound represented by (II″)) [%] | concentration in supernatant solution (solubility) (Tetrahydrofuran) [%] | concentration of crystalline form dissolved into the solution (listed as free form of Compound represented by (II″)) [%] | SMILES
0.05 | 3.1 | 3.1 | 0.05 |  | CC#CC(=O)c1ccc2ncnc(Nc3ccc(OCc4cccc(F)c4)c(Cl)c3)c2c1 [MsOH salt of Formula (II″)]
0.3 | 15.7 |  | 3.6 | 15.7 | CC#CC(=O)c1ccc2ncnc(Nc3ccc(OCc4cccc(F)c4)c(Cl)c3)c2c1 [Free form of Formula (II″), 4-(3-chloro-4-(3-fluorobenzyloxy)phenylamino)-6-(1-oxo-2-butyn-1-yl)quinazoline]
